Assay [1] concerns RG4 (RNA, G4) AAGGAAGGGGAAGUCAGGUGGGGCCUGGGGAACCAGGAAGCGGGGAACAGG
Description: fluorescence Job's plot. To be noted: 100 mM KCl; 1×PBS pH 7.4, 37 °C; total concentration 5 µM.

Assay [2] concerns c49 (C49) template annealed to primer H50/c49 (DNA, G4) TGAGGGTGGGGAGGGTGGGGAAGCCACCGCAATTGCTATAGTGAGTCGT/ACGACTCACTATAGCAATTGCG
Description: Taq polymerase stop assay. Conditions: 100 mM KCl, Mg2+; Tris-HCl pH 8.0; extension at 50 °C.

Assay [3] concerns H50 template annealed to primer H50/c49 (DNA, G4) AGGGTTAGGGTTAGGGTTAGGGGCCACCGCAATTGCTATAGTGAGTCGT/ACGACTCACTATAGCAATTGCG
Description: Taq polymerase stop assay. To be noted: 100 mM KCl, Mg2+; Tris-HCl pH 8.0; extension at 40 °C.

Assay [4] relates to 3G template annealed to primer P31 (DNA, G4) TTAGGGTTAGGGTTAGGGTTACCTAGGCATCCTCCAGTTCCTGGAGTCAGTG/CACTGACTCCAGGAACTGGAGGATGCCTAGG
Description: Taq polymerase stop assay. To be noted: 100 mM KCl, Mg2+; Tris-HCl pH 8.0; 0 to 100 µM ligand; extension at 40 °C.

The subject of assay [5] is 3G (DNA, G4) TTAGGGTTAGGGTTAGGGTTACCTAGGCATCCTCCAGTTCCTGGAGTCAGTG
Kind of assay: fluorescence, reporter dye in displacement assay. Conditions: 100 mM KCl; 10 mM Tris-HCl pH 7.2; dye 1 µM, DNA 0.5 µM.

Assay [6] relates to 4G template annealed to primer P31 (DNA, G4) AGGGTTAGGGTTAGGGTTAGGGTTACCTAGGCATCCTCCAGTTCCTGGAGTCAGTG/CACTGACTCCAGGAACTGGAGGATGCCTAGG
Kind of assay: Taq polymerase stop assay. Conditions: 100 mM KCl, Mg2+; Tris-HCl pH 8.0; 0 to 100 µM ligand; extension at 40 °C.

In assay [7] the test system is 4G (DNA, G4) AGGGTTAGGGTTAGGGTTAGGGTTACCTAGGCATCCTCCAGTTCCTGGAGTCAGTG
Kind of assay: fluorescence Job's plot. To be noted: 100 mM KCl; 1×PBS pH 7.4, 37 °C; total concentration 5 µM.

Assay [8] has the same test system. Description: fluorescence, reporter dye in displacement assay. To be noted: 100 mM KCl; 10 mM Tris-HCl pH 7.2; dye 1 µM, DNA 0.5 µM.
The test system of assay [9] is RG4 (RNA, G4) AAGGAAGGGGAAGUCAGGUGGGGCCUGGGGAACCAGGAAGCGGGGAACAGG
Description: fluorescent dye displacement. Conditions: 100 mM KCl; 10 mM Tris-HCl pH 7.2; B6,5 1 µM displaced; 0.5 µM nucleic acid; 1 equivalent of ligand.

In assay [10] the test system is 4G (DNA, G4) AGGGTTAGGGTTAGGGTTAGGGTTACCTAGGCATCCTCCAGTTCCTGGAGTCAGTG
Description: fluorescent dye displacement. To be noted: 100 mM KCl; 10 mM Tris-HCl pH 7.2; B6,5 1 µM displaced; 0.5 µM nucleic acid.

Assay [11] concerns 3G (DNA, G4) TTAGGGTTAGGGTTAGGGTTACCTAGGCATCCTCCAGTTCCTGGAGTCAGTG
Kind of assay: fluorescent dye displacement. To be noted: 100 mM KCl; 10 mM Tris-HCl pH 7.2; B6,5 1 µM displaced; 0.5 µM nucleic acid.

Each structure is given as a SMILES string.

For the compound `C1=C2Sc3ccccc3N2CCCCCCN2C(=C/C=C/C=C/c3sc4ccccc4[n+]3CCCCCC[n+]3c(sc4ccccc43)/C=C/C=C/1)Sc1ccccc12`, the binding result in assay [1], in assay [2], in assay [3], in assay [4], in assay [5] and in [6] was “yes” throughout. Further, the binding entry in [7] is listed as “yes”.
On to `CN1C(=Cc2cc[n+](C)c3ccccc23)Sc2ccccc21`, for which the binding result in [5] and in assay [8] was “yes” throughout.
Take `CN1CCC[C@H]1CCNC(=O)c1cn2c3c(c(N4CCC(c5cnccn5)C4)c(F)cc3c1=O)Oc1cc3ccccc3cc1-2` (some centres unmarked): in [9], the “% displacement of B6,5” value was > 60%. The binding result in [10] and in [11] was “yes” in each case.
For the compound `C[n+]1ccc(-c2c3nc(c(-c4cc[n+](C)cc4)c4ccc([nH]4)c(-c4cc[n+](C)cc4)c4nc(c(-c5cc[n+](C)cc5)c5ccc2[nH]5)C=C4)C=C3)cc1`, the “% displacement of B6,5” value in assay [9] is reported as > 60%. In addition, the binding result in assay [10] and in [11] was “yes” throughout.
Regarding `O=C(/C=C/C=C/c1ccc2c(c1)OCO2)N1CCCCC1`, the binding result in assay [10] is given as “yes”; in [11] it was “weak”.
For `O=C(c1cc(Cc2n[nH]c(=O)c3ccccc23)ccc1F)N1CCN(C(=O)C2CC2)CC1`, the “% displacement of B6,5” value in [9] is reported as > 60%. In addition, the binding result was “yes” in [10] and “weak” in assay [11].

These data come from publication PMC7961521 (2021).
